Residue numbers refer to the chain shown, from its start. Where two headings read alike, the source gives them in different places.
Legend:
[1] = molecular target: T1, GlyT2 A223C mutant (Rattus norvegicus, UniProt P58295, A223C); test: MTSEA-biotin labeling of A223C mutant in NaCl or choline chloride, COS7 cells; assay type: cell-based; details: 1 μM inhibitor; HBS containing NaCl or choline chloride
T1 construct: expressed in transfected cells; host or cells: COS7
T1 sequence (P58295 1-799 A223C): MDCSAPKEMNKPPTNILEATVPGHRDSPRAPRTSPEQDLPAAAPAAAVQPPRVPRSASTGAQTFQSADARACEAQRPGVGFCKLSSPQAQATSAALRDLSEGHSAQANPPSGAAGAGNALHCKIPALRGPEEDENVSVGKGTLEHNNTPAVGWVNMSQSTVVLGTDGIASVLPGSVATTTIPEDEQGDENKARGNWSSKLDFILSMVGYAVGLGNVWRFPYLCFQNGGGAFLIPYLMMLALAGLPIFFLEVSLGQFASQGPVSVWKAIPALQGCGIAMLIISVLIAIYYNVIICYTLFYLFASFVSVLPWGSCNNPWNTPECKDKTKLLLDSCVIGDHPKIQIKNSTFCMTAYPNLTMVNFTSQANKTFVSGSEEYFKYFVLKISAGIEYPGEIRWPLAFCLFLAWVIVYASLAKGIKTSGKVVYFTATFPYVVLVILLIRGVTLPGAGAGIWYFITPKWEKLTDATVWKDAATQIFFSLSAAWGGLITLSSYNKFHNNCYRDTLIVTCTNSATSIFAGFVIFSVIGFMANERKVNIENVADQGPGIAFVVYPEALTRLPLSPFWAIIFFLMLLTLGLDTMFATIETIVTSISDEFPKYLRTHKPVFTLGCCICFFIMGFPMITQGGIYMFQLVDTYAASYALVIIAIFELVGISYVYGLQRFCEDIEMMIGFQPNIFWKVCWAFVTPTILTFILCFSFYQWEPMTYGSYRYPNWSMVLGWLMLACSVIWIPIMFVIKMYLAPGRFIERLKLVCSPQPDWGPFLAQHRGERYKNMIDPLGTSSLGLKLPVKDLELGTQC
Text: Several pieces of evidence were obtained to confirm this prediction (Figure 7). […] A second piece of evidence came from experiments using the […] mutant of GlyT2 that contains an exogenous cysteine in EL1, a region sensitive to the different conformations of the transporter induced by the substrates during the transport cycle.[44] […] Then, the cells were washed and subjected to MTSEA-biotin staining as described above.

[2] = molecular target: T2, GlyT2 (Rattus norvegicus, UniProt P58295); test: [3H]glycine transport by recombinant GlyT2 expressed in COS7 cells; assay type: cell-based; details: for Vmax of glycine transport: n = 3; for reversibility of inhibition upon cell washing: washed, transport at 10 μM glycine; for decay of transport inhibition after 1–4 washes: 1 μM inhibitor 10 min, washes with HBS containing NaCl or choline chloride
T2 construct: expressed in transfected cells; host or cells: COS7
T2 sequence (P58295 1-799): T1 sequence (P58295 1-799 A223C) with C223A
Method: Substitution mutants were generated with the QuikChange II Site-Directed Mutagenesis kit (Agilent Technologies, Santa Clara, CA, USA), using rGlyT2 or rGlyT1 subcloned in pCDNA3.[47] The complete coding region of all of the constructs was sequenced to verify that only the desired mutation had been introduced. […] COS7 cells were grown and transfected using Turbofect Transfection Reagent (Thermo Fisher Scientific, Waltham, MA, USA), following the manufacturer’s protocol (2 μL reagent/μg of DNA). Cells were incubated for 48 h at 37 °C until used.
At the end of the desired time (usually 10 min), reactions were washed and terminated by aspiration. […] A nonlinear curve fitting method was used to obtain IC50 values using Graphpad Prism software, version 6.0, Graphpad, San Diego, CA, USA.

[3] = cited from earlier work
[4] = 1 nM inhibitor, glycine 0.5–500 μM
[5] = 10 nM inhibitor, glycine 0.5–500 μM
[6] = 50 nM inhibitor, glycine 0.5–500 μM
[7] = 100 nM inhibitor, glycine 0.5–500 μM
[8] = IC50, inhibition of glycine transport, COS7 cells, 10 μM glycine

SMILES | MTSEA-biotin labeling of A223C, sodium dependence [1] | Vmax of glycine transport [2, 4] | Vmax of glycine transport [2, 5] | reversibility of inhibition upon cell washing ([2]; 50 nM inhibitor) | Vmax of glycine transport [2, 6] | Vmax of glycine transport [2, 7] | decay of transport inhibition after 1–4 washes [2] | IC50 ([2]; 25 mM NaCl, choline chloride substitution, read-out: IC50, inhibition of [3H]-glycine transport, low sodium) | IC50 ([2]; 150 mM NaCl, read-out: IC50, inhibition of [3H]-glycine transport, regular sodium) | selectivity for GlyT2 over GlyT1 ([2]; COS7 cells) | IC50 [2, 8] | difference of inhibitor EC50 at every glycine concentration from its value at 10 μM glycine ([2]; glycine 0.5–500 μM) | inhibition type (Eadie–Hofstee plots) ([2]; glycine 0.5–500 μM) | fraction of the drug that crosses the blood–brain barrier [3] | IC50 ([2]; IC50 (Table S1), wtGlyT2, 10 μM glycine as in Figs. 4 and 5) | IC50 ([2]; IC50, inhibition of [3H]-glycine transport, low sodium, 25 mM NaCl, choline chloride substitution) | IC50 ([2]; IC50, inhibition of [3H]-glycine transport, regular sodium, 150 mM NaCl) | selectivity for GlyT2 (in words) ([2]; compared with ALX1393, Figure 2B) | blood–brain barrier crossing (in words) [3]
N[C@@H](COC(c1cccc(F)c1)c1ccccc1OCc1ccccc1)C(=O)O (stereo partly shown) [ALX1393] | abolished the label in NaCl but left it intact in choline chloride | 22.3 nmol Gly/mg prot/6 min | 18.8 nmol Gly/mg prot/6 min | eliminated by cell washing | 13.2 nmol Gly/mg prot/6 min | 30.4 nmol Gly/mg prot/6 min | presence of sodium in the washing buffer reduced the washing power | 122 ± 20.9 nM | 21.8 ± 4.1 nM | about 2 orders of magnitude | 31 ± 2.7 nM | no more than 30% | noncompetitive behavior | 5% | – | – | – | – | –
COc1cc(C(=O)NCC2(N(C)C)CCCC2)cc(OC)c1OCc1ccccc1 [ORG25543, N-[[1-(dimethylamino)cyclopentyl]methyl]-3,5-dimethoxy-4-(phenylmethoxy)benzamide] | protects the labeling independently of the cation present in the buffer | 24.6 nmol Gly/mg prot/6 min | 23.8 nmol Gly/mg prot/6 min | irreversible inhibition | 18.6 nmol Gly/mg prot/6 min | 11.5 nmol Gly/mg prot/6 min | no inhibition decay was observed | – | – | – | 17.7 ± 4.6 nM | – | mainly noncompetitive behavior | – | 18 ± 5 nM | 51.2 ± 12.3 nM | 23.8 ± 7.1 nM | higher selectivity for GlyT2 | can cross the blood–brain barrier

From PMC8691691 (ACS Chemical Neuroscience, 2021)
